Measurements published in patent US10294202B2, “Pyrrolidinones as herbicides” (FMC Corporation, priority 2013, dated 2019).

Assays:
barnyardgrass = test: Test A pre-/postemergence herbicide test; format: in vivo, Echinochloa crus-galli; details: for Barnyardgrass plant response rating: Preemergence, visual rating on 0 to 100 scale (0 no effect, 100 complete control)
In short: (§1)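 Scoring was visual, relative to untreated controls, on a 0–100 scale after about 10 greenhouse days. Preemergence treatment used a directed soil spray over seeded loam/sand; postemergence treatment targeted one- to two-leaf plants of 2–10 cm.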

pigweed = test: Test A pre-/postemergence herbicide test; format: in vivo, Amaranthus retroflexus; details: for Pigweed plant response rating: Preemergence, visual rating on 0 to 100 scale (0 no effect, 100 complete control)
In short: as §1

wheat = test: Test A pre-/postemergence herbicide test; format: in vivo, Triticum aestivum; details: for Wheat plant response rating: Preemergence, visual rating on 0 to 100 scale (0 no effect, 100 complete control)
In short: as §1

corn [1] = test: Test A pre-/postemergence herbicide test; format: in vivo, Zea mays; details: for Corn plant response rating: Preemergence, visual rating on 0 to 100 scale (0 no effect, 100 complete control)
In short: as §1

ryegrass, Italian = test: Test C pre-/postemergence herbicide test; format: in vivo, Lolium multiflorum; details: for Ryegrass, Italian plant response rating: scale 0 to 100, 0 is no effect and 100 is complete control
In short: (§2)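 Response scores range from 0, meaning no effect, to 100, meaning complete control, assigned visually by comparison with controls roughly two weeks (13 to 15 days) after spraying. Applications were made preemergence to seeded loam–sand soil and postemergence to 1- to 4-leaf plants.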

wheat (winter wheat) = test: Test C pre-/postemergence herbicide test; format: in vivo, Triticum aestivum; details: for Wheat plant response rating: scale 0 to 100, 0 is no effect and 100 is complete control
In short: as §2

galium = test: Test C pre-/postemergence herbicide test; format: in vivo, Galium aparine; details: for Galium plant response rating: scale 0 to 100, 0 is no effect and 100 is complete control
In short: as §2

corn [2] = test: Test C pre-/postemergence herbicide test; format: in vivo, Zea mays; details: for Corn plant response rating: scale 0 to 100, 0 is no effect and 100 is complete control
In short: as §2

crabgrass, large = test: Test C pre-/postemergence herbicide test; format: in vivo, Digitaria sanguinalis; details: for Crabgrass, Large plant response rating: scale 0 to 100, 0 is no effect and 100 is complete control
In short: as §2

foxtail, giant = test: Test C pre-/postemergence herbicide test; format: in vivo, Setaria faberii; details: for Foxtail, Giant plant response rating: scale 0 to 100, 0 is no effect and 100 is complete control
In short: as §2

johnsongrass = test: Test C pre-/postemergence herbicide test; format: in vivo, Sorghum halepense; details: for Johnsongrass plant response rating: scale 0 to 100, 0 is no effect and 100 is complete control
In short: as §2

morningglory = test: Test C pre-/postemergence herbicide test; format: in vivo, Ipomoea coccinea; details: for Morningglory plant response rating: scale 0 to 100, 0 is no effect and 100 is complete control
In short: as §2

soybean = test: Test C pre-/postemergence herbicide test; format: in vivo, Glycine max; details: for Soybean plant response rating: scale 0 to 100, 0 is no effect and 100 is complete control
In short: as §2

[3] = Postemergence, 125 g ai/ha, 0 to 100 scale, 0 no effect, 100 complete control
[4] = Postemergence, 500 g ai/ha, 0 to 100 scale (0 no effect, 100 complete control)
[5] = preemergence, 500 g ai/ha, 0 to 100 scale (0 no effect, 100 complete control)
[6] = preemergence, 500 g ai/ha, 0 to 100 scale
[7] = Postemergence, 31 g ai/ha, scale 0 (no effect) to 100 (complete control)
[8] = Postemergence, 62 g ai/ha, scale 0 to 100 (0 no effect, 100 complete control)
[9] = Postemergence, 125 g ai/ha, scale 0 to 100 (0 no effect, 100 complete control)
[10] = Postemergence, 250 g ai/ha, scale 0 to 100 (0 no effect, 100 complete control)
[11] = Preemergence, 62 g ai/ha, scale 0 to 100
[12] = Preemergence, 125 g ai/ha, scale 0 to 100 (0 no effect, 100 complete control)

## O=C1NCC(c2ccc(F)c(C(F)(F)F)c2)C1C(=O)Nc1ccccc1F (racemic) [Compound 76]
barnyardgrass; [3]
  Plant response rating, Barnyardgrass: 80
barnyardgrass; [4]
  Plant response rating, Barnyardgrass: 90
barnyardgrass; 125 g ai/ha
  Barnyardgrass plant response rating: 80
barnyardgrass; [5]
  Plant response rating, Barnyardgrass: 80
pigweed; [3]
  Plant response rating, Pigweed: 50
pigweed; [4]
  Plant response rating, Pigweed: 60
pigweed; 125 g ai/ha
  Pigweed plant response rating: 0
pigweed; [6]
  Plant response rating, Pigweed: 50
wheat; [3]
  Plant response rating, Wheat: 50
wheat; [4]
  Plant response rating, Wheat: 60
wheat; 125 g ai/ha
  Wheat plant response rating: 0
wheat; [6]
  Plant response rating, Wheat: 0
Corn [1]; [3]
  Plant response rating, Corn: 40
Corn [1]; [4]
  Plant response rating, Corn: 70
Corn [1]; 125 g ai/ha
  Corn plant response rating: 0
Corn [1]; [6]
  Plant response rating, Corn: 40
ryegrass, Italian; [7]
  Plant response rating, Ryegrass, Italian: 0
ryegrass, Italian; [8]
  Plant response rating, Ryegrass, Italian: 0
ryegrass, Italian; [9]
  Plant response rating, Ryegrass, Italian: 0
ryegrass, Italian; [10]
  Plant response rating, Ryegrass, Italian: 5
ryegrass, Italian; Preemergence, 31 g ai/ha
  Ryegrass, Italian plant response rating: 0
ryegrass, Italian; [11]
  Plant response rating, Ryegrass, Italian: 25
ryegrass, Italian; [12]
  Plant response rating, Ryegrass, Italian: 40
ryegrass, Italian; Preemergence, 250 g ai/ha
  Plant response rating (scale of 0 to 100), Ryegrass, Italian: 40
Wheat (winter wheat); [7]
  Plant response rating, Wheat: 0
Wheat (winter wheat); [8]
  Plant response rating, Wheat: 0
Wheat (winter wheat); [9]
  Plant response rating, Wheat: 0
Wheat (winter wheat); [10]
  Plant response rating, Wheat: 5
Wheat (winter wheat); Preemergence, 31 g ai/ha
  Wheat plant response rating: 35
Wheat (winter wheat); [11]
  Plant response rating, Wheat: 45
Wheat (winter wheat); [12]
  Plant response rating, Wheat: 70
Wheat (winter wheat); Preemergence, 250 g ai/ha
  Plant response rating (scale of 0 to 100), Wheat: 80
galium; [7]
  Plant response rating, Galium: 30
galium; [8]
  Plant response rating, Galium: 50
galium; [9]
  Plant response rating, Galium: 50
galium; [10]
  Plant response rating, Galium: 65
galium; Preemergence, 31 g ai/ha
  Galium plant response rating: 5
galium; Preemergence, 250 g ai/ha
  Plant response rating (scale of 0 to 100), Galium: 85
Corn [2]; [7]
  Plant response rating, Corn: 0
Corn [2]; [8]
  Plant response rating, Corn: 0
Corn [2]; [9]
  Plant response rating, Corn: 0
Corn [2]; [10]
  Plant response rating, Corn: 0
Corn [2]; Preemergence, 31 g ai/ha
  Corn plant response rating: 0
Corn [2]; [11]
  Plant response rating, Corn: 10
Corn [2]; [12]
  Plant response rating, Corn: 40
Corn [2]; Preemergence, 250 g ai/ha
  Plant response rating (scale of 0 to 100), Corn: 65
crabgrass, large; [7]
  Plant response rating, Crabgrass, Large: 0
crabgrass, large; [8]
  Plant response rating, Crabgrass, Large: 50
crabgrass, large; [9]
  Plant response rating, Crabgrass, Large: 70
crabgrass, large; [10]
  Plant response rating, Crabgrass, Large: 75
crabgrass, large; Preemergence, 31 g ai/ha
  Crabgrass, Large plant response rating: 98
crabgrass, large; [11]
  Plant response rating, Crabgrass, Large: 98
crabgrass, large; [12]
  Plant response rating, Crabgrass, Large: 100
crabgrass, large; Preemergence, 250 g ai/ha
  Plant response rating (scale of 0 to 100), Crabgrass, Large: 100
foxtail, giant; [7]
  Plant response rating, Foxtail, Giant: 0
foxtail, giant; [8]
  Plant response rating, Foxtail, Giant: 5
foxtail, giant; [9]
  Plant response rating, Foxtail, Giant: 20
foxtail, giant; [10]
  Plant response rating, Foxtail, Giant: 70
foxtail, giant; Preemergence, 31 g ai/ha
  Foxtail, Giant plant response rating: 90
foxtail, giant; [11]
  Plant response rating, Foxtail, Giant: 95
foxtail, giant; [12]
  Plant response rating, Foxtail, Giant: 95
foxtail, giant; Preemergence, 250 g ai/ha
  Plant response rating (scale of 0 to 100), Foxtail, Giant: 98
johnsongrass; [7]
  Plant response rating, Johnsongrass: 0
johnsongrass; [8]
  Plant response rating, Johnsongrass: 0
johnsongrass; [9]
  Plant response rating, Johnsongrass: 0
johnsongrass; [10]
  Plant response rating, Johnsongrass: 0
johnsongrass; Preemergence, 31 g ai/ha
  Johnsongrass plant response rating: 20
johnsongrass; [11]
  Plant response rating, Johnsongrass: 45
johnsongrass; [12]
  Plant response rating, Johnsongrass: 45
johnsongrass; Preemergence, 250 g ai/ha
  Plant response rating (scale of 0 to 100), Johnsongrass: 80
morningglory; [7]
  Plant response rating, Morningglory: 10
morningglory; [8]
  Plant response rating, Morningglory: 10
morningglory; [9]
  Plant response rating, Morningglory: 40
morningglory; [10]
  Plant response rating, Morningglory: 40
morningglory; Preemergence, 31 g ai/ha
  Morningglory plant response rating: 0
morningglory; [11]
  Plant response rating, Morningglory: 0
morningglory; [12]
  Plant response rating, Morningglory: 40
morningglory; Preemergence, 250 g ai/ha
  Plant response rating (scale of 0 to 100), Morningglory: 40
soybean; [7]
  Plant response rating, Soybean: 0
soybean; [8]
  Plant response rating, Soybean: 0
soybean; [9]
  Plant response rating, Soybean: 5
soybean; [10]
  Plant response rating, Soybean: 10
soybean; Preemergence, 31 g ai/ha
  Soybean plant response rating: 0
soybean; [11]
  Plant response rating, Soybean: 0
soybean; [12]
  Plant response rating, Soybean: 0
soybean; Preemergence, 250 g ai/ha
  Plant response rating (scale of 0 to 100), Soybean: 0

## O=C1NCC(c2ccc(F)c(C(F)(F)F)c2)C1C(=O)Nc1ccccc1C(F)(F)F (racemic) [Compound 78]
barnyardgrass; [3]
  Plant response rating, Barnyardgrass: 50
barnyardgrass; [4]
  Plant response rating, Barnyardgrass: 70
barnyardgrass; 125 g ai/ha
  Barnyardgrass plant response rating: 80
barnyardgrass; [5]
  Plant response rating, Barnyardgrass: 90
pigweed; [3]
  Plant response rating, Pigweed: 50
pigweed; [4]
  Plant response rating, Pigweed: 50
pigweed; 125 g ai/ha
  Pigweed plant response rating: 10
pigweed; [6]
  Plant response rating, Pigweed: 60
wheat; [3]
  Plant response rating, Wheat: 40
wheat; [4]
  Plant response rating, Wheat: 50
wheat; 125 g ai/ha
  Wheat plant response rating: 0
wheat; [6]
  Plant response rating, Wheat: 0
Corn [1]; [3]
  Plant response rating, Corn: 20
Corn [1]; [4]
  Plant response rating, Corn: 50
Corn [1]; 125 g ai/ha
  Corn plant response rating: 0
Corn [1]; [6]
  Plant response rating, Corn: 0
ryegrass, Italian; Preemergence, 31 g ai/ha
  Ryegrass, Italian plant response rating: 0
ryegrass, Italian; [11]
  Plant response rating, Ryegrass, Italian: 40
ryegrass, Italian; [12]
  Plant response rating, Ryegrass, Italian: 40
ryegrass, Italian; Preemergence, 250 g ai/ha
  Plant response rating (scale of 0 to 100), Ryegrass, Italian: 45
Wheat (winter wheat); Preemergence, 31 g ai/ha
  Wheat plant response rating: 10
Wheat (winter wheat); [11]
  Plant response rating, Wheat: 30
Wheat (winter wheat); [12]
  Plant response rating, Wheat: 60
Wheat (winter wheat); Preemergence, 250 g ai/ha
  Plant response rating (scale of 0 to 100), Wheat: 90
galium; Preemergence, 31 g ai/ha
  Galium plant response rating: 50
galium; [11]
  Plant response rating, Galium: 50
galium; [12]
  Plant response rating, Galium: 60
galium; Preemergence, 250 g ai/ha
  Plant response rating (scale of 0 to 100), Galium: 85
Corn [2]; Preemergence, 31 g ai/ha
  Corn plant response rating: 0
Corn [2]; [11]
  Plant response rating, Corn: 0
Corn [2]; [12]
  Plant response rating, Corn: 40
Corn [2]; Preemergence, 250 g ai/ha
  Plant response rating (scale of 0 to 100), Corn: 60
crabgrass, large; Preemergence, 31 g ai/ha
  Crabgrass, Large plant response rating: 95
crabgrass, large; [11]
  Plant response rating, Crabgrass, Large: 98
crabgrass, large; [12]
  Plant response rating, Crabgrass, Large: 98
crabgrass, large; Preemergence, 250 g ai/ha
  Plant response rating (scale of 0 to 100), Crabgrass, Large: 98
foxtail, giant; Preemergence, 31 g ai/ha
  Foxtail, Giant plant response rating: 85
foxtail, giant; [11]
  Plant response rating, Foxtail, Giant: 95
foxtail, giant; [12]
  Plant response rating, Foxtail, Giant: 95
foxtail, giant; Preemergence, 250 g ai/ha
  Plant response rating (scale of 0 to 100), Foxtail, Giant: 98
johnsongrass; Preemergence, 31 g ai/ha
  Johnsongrass plant response rating: 0
johnsongrass; [11]
  Plant response rating, Johnsongrass: 0
johnsongrass; [12]
  Plant response rating, Johnsongrass: 15
johnsongrass; Preemergence, 250 g ai/ha
  Plant response rating (scale of 0 to 100), Johnsongrass: 60
morningglory; Preemergence, 31 g ai/ha
  Morningglory plant response rating: 0
morningglory; [11]
  Plant response rating, Morningglory: 0
morningglory; [12]
  Plant response rating, Morningglory: 0
morningglory; Preemergence, 250 g ai/ha
  Plant response rating (scale of 0 to 100), Morningglory: 0
soybean; Preemergence, 31 g ai/ha
  Soybean plant response rating: 0
soybean; [11]
  Plant response rating, Soybean: 0
soybean; [12]
  Plant response rating, Soybean: 0
soybean; Preemergence, 250 g ai/ha
  Plant response rating (scale of 0 to 100), Soybean: 0
